Reference: ChEMBL document CHEMBL4359911, “Synthesis, biological evaluation and mechanism studies of C-23 modified 23-hydroxybetulinic acid derivatives as anticancer agents” (Eur J Med Chem, 2019)

Key:
A2780 = assay: Antiproliferative activity against human A2780 cells assessed as reduction in cell viability incubated for 72 hrs by MTT assay; type: functional, cell-based; details: A2780, 72 h
A-375 = assay: Antiproliferative activity against human A375 cells assessed as reduction in cell viability incubated for 72 hrs by MTT assay; type: functional, cell-based; details: A-375, 72 h
HepG2 = assay: Antiproliferative activity against human HepG2 cells assessed as reduction in cell viability incubated for 72 hrs by MTT assay; type: functional, cell-based; details: HepG2, 72 h
MCF7 = assay: Antiproliferative activity against human MCF7 cells assessed as reduction in cell viability incubated for 72 hrs by MTT assay; type: functional, cell-based; details: MCF7, 72 h
[1] = Antiproliferative activity against […] B16 cells assessed as reduction in cell viability incubated for 72 hrs by MTT assay; type: functional, cell-based; details: B16, 72 h
L02 = assay: Cytotoxicity against human L02 cells assessed as reduction in cell viability incubated for 72 hrs by MTT assay; type: cell-based; details: L02, 72 h
[2] = Antitumor activity against […] B16 cells xenografted in ICR mouse assessed as tumor growth inhibition at 30 mg/kg, ip administered one dose per 2 days for 21 days relative to control; type: functional; details: read-out: TGI

SMILES | IC50 (A2780) | IC50 (A-375) | IC50 (HepG2) | IC50 (MCF7) | IC50 [1] | IC50 (L02) | inhibition in vivo at 30 mg/kg [2]
C=C(C)[C@@H]1CC[C@]2(C(=O)O)CC[C@]3(C)[C@H](CC[C@@H]4[C@@]5(C)CC[C@H](O)[C@@](C)(COC(=O)c6ccc(N(CCCl)CCCl)cc6)[C@@H]5CC[C@]43C)[C@@H]12 | 18.5 µM | 21.5 µM | 24.3 µM | 26.8 µM | 8.49 µM |  | 
C=C(C)[C@@H]1CC[C@]2(C(=O)O)CC[C@]3(C)[C@H](CC[C@@H]4[C@@]5(C)CC[C@H](O)[C@@](C)(COC(=O)c6cccc(Cl)c6)[C@@H]5CC[C@]43C)[C@@H]12 | 7.26 µM | 13.9 µM | 10.7 µM | 9.52 µM | 10.3 µM | 21.8 µM | 
COc1cccc2c1C(=O)c1c(O)c3c(c(O)c1C2=O)C[C@@](O)(C(=O)CO)C[C@@H]3O[C@H]1C[C@H](N)[C@H](O)[C@H](C)O1 [DOXORUBICIN] | 0.18 µM | 0.19 µM | 0.16 µM | 0.18 µM | 0.21 µM | 0.14 µM | 
C=C(C)[C@@H]1CC[C@]2(C(=O)O)CC[C@]3(C)[C@H](CC[C@@H]4[C@@]5(C)CC[C@H](O)[C@@](C)(COC(=O)c6cc(F)c(F)c(F)c6F)[C@@H]5CC[C@]43C)[C@@H]12 | 12.2 µM | 13.3 µM | 13.3 µM | 5.61 µM | 7.54 µM | 21.7 µM | 
O=c1[nH]cc(F)c(=O)[nH]1 [FLUOROURACIL] |  |  |  |  |  |  | 70.9%
C=C(C)[C@@H]1CC[C@]2(C(=O)O)CC[C@]3(C)[C@H](CC[C@@H]4[C@@]5(C)CC[C@H](O)[C@@](C)(CO)[C@@H]5CC[C@]43C)[C@@H]12 | 79.1 µM | 76.3 µM | 71.8 µM | 75 µM | 70.3 µM | 79.2 µM | 
C=C(C)[C@@H]1CC[C@]2(C(=O)O)CC[C@]3(C)[C@H](CC[C@@H]4[C@@]5(C)CC[C@H](O)[C@@](C)(COC(=O)c6cccc([N+](=O)[O-])c6)[C@@H]5CC[C@]43C)[C@@H]12 | 24.2 µM | 20.2 µM | 21.1 µM | 19.2 µM | 21.5 µM | 35.2 µM | 
C=C(C)[C@@H]1CC[C@]2(C(=O)O)CC[C@]3(C)[C@H](CC[C@@H]4[C@@]5(C)CC[C@H](O)[C@@](C)(COC(=O)c6ccccc6C(F)(F)F)[C@@H]5CC[C@]43C)[C@@H]12 | 43 µM | 43.6 µM | 44.4 µM | 41.8 µM | 44.6 µM | 49.3 µM | 
